Assay results published in EP0590919A1, “Therapeutic agents for parkinson's disease” (KYOWA HAKKO KOGYO CO., LTD., priority 1992, dated 1994).

Columns and labels:
dd-strain male mice = test: Acute toxicity test (minimum lethal dose, oral); type: in vivo; details: oral administration, three mice per group, mortality seven days after administration
Experimental: Test compounds were orally administered to groups of dd-strain male mice weighing 20 ± 1 g, each group consisting of three mice. Seven days after the administration, minimum lethal dose (MLD) of each compound was determined by observing the mortality.

A₂ receptor = molecular target: T1, A₂ receptor (Rattus norvegicus, UniProt P30543); test: Adenosine A₂ receptor binding test (³H-NECA binding); details: ³H-NECA binding, rat corpus striatum, read-out: Inhibition (%) A₂ Receptor; for inhibition at 100 µM: 10⁻⁴M; for inhibition at 10 µM: 10⁻⁵M; for inhibition at 1 µM: 10⁻⁶M; for inhibition at 0.1 µM: 10⁻⁷M
T1 construct: from tissue; host or cells: rat corpus striatum membrane preparation
Experimental: The similar procedure as in the above-described adenosine A₁ receptor binding test was repeated using rat corpus striatum to obtain the final precipitate of the tissue thereof. The precipitate was suspended in 50 mM Tris HCl buffer containing 10 mM magnesium chloride and 0.02 unit/mg tissue of adenosine deaminase (manufactured by Sigma Co.) to give a tissue concentration of 5 mg (wet weight)/ml.
The mixture solution was allowed to stand at 25°C for 120 minutes and then treated in the same manner as in the adenosine A₁ receptor binding test to determine the radioactivity bound to the A₂ receptors.
The inhibition rate of the test compound against the binding of A₂ receptor (³H-NECA binding) was calculated by the following equation: [formula] [Notes] • 1.

[1] = system: Haloperidol-Induced Catalepsy; test: Effect on haloperidol-induced catalepsy; type: in vivo, mice; details: for ED50: Mus musculus, 1 h, ten mice at each dose, effective = catalepsy score 3 or less, Probit analysis, oral, read-out: ED₅₀; for Number of the Animals Showing Remission: of five mice, catalepsy score not more than 4 points; for Number of the Animals Showing Remission / Remission Rate (%) / Total Score: 10 mg/kg orally; for Remission Rate (%): rate of decrease in total score based on control group; for Total Score: total catalepsy score of five mice (25 points at the full), haloperidol 1.0 mg/kg i.p.
Experimental: Haloperidol (Janssen Pharmaceutica) suspended in 0.3% CMC was intraperitoneally administered to each mouse at a dose of 1.0 mg/kg. Test compounds were suspended in 0.3% CMC or in injectable distilled water (Otsuka Pharmaceutical Co., Ltd.) containing Tween 80. L-DOPA (Kyowa Hakko Kogyo Co., Ltd.) and benserazide hydrochloride (Kyowa Hakko Kogyo Co., Ltd.) were suspended in 0.3% CMC. One hour after the haloperidol administration, the test compound suspensions and the control suspension [injectable distilled water (Otsuka Pharmaceutical Co., Ltd.) containing Tween 80] containing no test compound were orally administered to separate groups of the mice (0.1 ml per 10 g of body weight). One hour after the administration of the test compound, the forelimbs of each mouse and subsequently the hindlimbs of the same mouse were placed on a 4.5 cm-high, 1.0 cm-wide bar and catalepsy was estimated. […] The catalepsy score and the standard of judgment are shown below. […] The number of the animals showing remission against catalepsy is the number of the mice for which the catalepsy score was not more than 4 points. […] The ED₅₀ values were calculated by Probit analysis.

T1 sequence (P30543 whole entry): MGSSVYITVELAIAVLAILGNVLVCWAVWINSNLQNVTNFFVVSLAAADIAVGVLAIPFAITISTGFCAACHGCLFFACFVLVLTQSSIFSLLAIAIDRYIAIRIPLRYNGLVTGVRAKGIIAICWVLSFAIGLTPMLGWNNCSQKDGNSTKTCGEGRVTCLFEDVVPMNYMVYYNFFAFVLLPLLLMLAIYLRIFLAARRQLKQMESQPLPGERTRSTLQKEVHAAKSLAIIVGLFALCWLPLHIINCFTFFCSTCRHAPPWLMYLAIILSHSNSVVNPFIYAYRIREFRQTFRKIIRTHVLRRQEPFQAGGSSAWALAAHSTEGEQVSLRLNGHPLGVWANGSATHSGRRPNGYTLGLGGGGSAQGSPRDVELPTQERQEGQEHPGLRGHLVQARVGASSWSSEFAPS

SMILES | MLD (dd-strain male mice) | inhibition at 100 µM (A₂ receptor) | inhibition at 10 µM (A₂ receptor) | inhibition at 1 µM (A₂ receptor) | inhibition at 0.1 µM (A₂ receptor) | ED50 [1] | Number of the Animals Showing Remission [1] | Remission Rate (%) [1] | Total Score [1]
CCn1c(=O)c2c(nc(/C=C/c3ccc(OC)c(OC)c3Cl)n2C)n(CC)c1=O [Compound 50, (E)-8-(2-Chloro-3,4-dimethoxystyryl)-1,3-diethyl-7-methylxanthine] | > 300 mg/kg | 93% | 88% | 95% | 88% | 3.8 mg/kg | 4 | 24% | 19
CCn1c(=O)c2c(nc(/C=C/c3cc(C)c(OC)cc3C)n2C)n(CC)c1=O [Compound 12, (E)-1,3-Diethyl-8-(4-methoxy-2,5-dimethylstyryl)-7-methylxanthine] | > 300 mg/kg |  |  |  |  | 2.7 mg/kg | 5 | 52% | 12
CCn1c(=O)c2[nH]c(/C=C/c3cccc(OC)c3[N+](=O)[O-])nc2n(CC)c1=O [Compound 63, (E)-1,3-Diethyl-8-(3-methoxy-2-nitrostyryl)xanthine] | > 300 mg/kg | 79% | 74% |  |  |  | 3 | 32% | 17
CCn1c(=O)c2c(nc(/C(F)=C\c3ccccc3)n2C)n(CC)c1=O [Compound 76, (E)-1,3-Diethyl-8-(α-fluorostyryl)-7-methylxanthine] | > 100 mg/kg |  |  | 69% | 30% |  | 4 | 40% | 15
CCCOc1ccc(/C=C/c2nc3c(c(=O)n(CC)c(=O)n3CC)n2C)cc1 [Compound 38, (E)-1,3-Diethyl-7-methyl-8-(4-propoxystyryl)xanthine] | > 300 mg/kg |  |  | 94% | 71% | 2.5 mg/kg | 4 | 68% | 8
CCn1c(=O)c2c(nc(/C=C/c3ccc(F)c(F)c3)n2C)n(CC)c1=O [Compound 54, (E)-8-(3,4-Difluorostyryl)-1,3-diethyl-7-methylxanthine] | > 300 mg/kg | 96% | 95% | 94% | 63% |  | 5 | 28% | 18
COc1ccc(/C=C/c2nc3c([nH]2)c(=O)n(C)c(=O)n3C)c(OC)c1C [Compound 31, (E)-8-(2,4-Dimethoxy-3-methylstyryl)theophylline] | > 100 mg/kg | 79% | 89% | 82% | 74% |  | 4 | 36% | 16
CCn1c(=O)c2c(nc(/C=C/c3cc(C)ccc3C)n2C)n(CC)c1=O [Compound 34, (E)-8-(2,5-Dimethylstyryl)-1,3-diethyl-7-methylxanthine] | > 300 mg/kg | 94% | 90% | 93% | 86% | 2.6 mg/kg | 5 | 68% | 8
CCn1c(=O)c2c(nc(/C=C/c3ccc(OC)cc3OC)n2C)n(CC)c1=O [Compound 6, (E)-8-(2,4-Dimethoxystyryl)-1,3-diethyl-7-methylxanthine] | > 300 mg/kg |  |  |  |  | 1.7 mg/kg | 5 | 76% | 6
COc1ccc(/C=C/c2nc3c(c(=O)n(C)c(=O)n3C)n2C)c(OC)c1C [Compound 32, (E)-8-(2,4-Dimethoxy-3-methylstyryl)caffeine] | > 100 mg/kg | 98% | 82% | 84% | 83% |  | 4 | 32% | 17
CCn1c(=O)c2c(nc(/C=C/c3ccc(OC)c(Br)c3)n2C)n(CC)c1=O [Compound 56, (E)-8-(3-Bromo-4-methoxystyryl)-1,3-diethyl-7-methylxanthine] | > 100 mg/kg | 99% | 97% | 92% | 74% |  | 5 | 44% | 14
CCn1c(=O)c2[nH]c(/C=C/c3cc(OC)cc(OC)c3)nc2n(CC)c1=O [Compound 67, (E)-8-(3,5-Dimethoxystyryl)-1,3-diethylxanthine] | > 100 mg/kg |  |  | 73% | 73% |  | 5 | 64% | 9
CCOc1ccc(/C=C/c2nc3c(c(=O)n(CC)c(=O)n3CC)n2C)cc1 [Compound 36, (E)-8-(4-Ethoxystyryl)-1,3-diethyl-7-methylxanthine] | > 300 mg/kg |  |  | 101% | 71% | 1.5 mg/kg | 5 | 76% | 6
CCCOc1ccc(/C=C/c2nc3c([nH]2)c(=O)n(CC)c(=O)n3CC)cc1 [Compound 37, (E)-1,3-Diethyl-8-(4-propoxystyryl)xanthine] | > 100 mg/kg |  |  | 60% | 56% |  |  |  | 
COc1ccc(/C=C/c2nc3c(c(=O)n(C)c(=O)n3C)n2C)c(Cl)c1OC [Compound 52, (E)-8-(2-Chloro-3,4-dimethoxystyryl)caffeine] | > 300 mg/kg | 83% | 81% | 88% | 78% | 1.7 mg/kg | 5 | 60% | 10
CCn1c(=O)c2c(nc(/C=C/c3cccc(Cl)c3)n2C)n(CC)c1=O [Compound 70, (E)-8-(3-Chlorostyryl)-1,3-diethyl-7-methylxanthine] | > 300 mg/kg |  |  | 84% | 76% |  | 4 | 44% | 14
COc1ccc(/C=C/c2nc3c(c(=O)n(C)c(=O)n3C)n2C)c(OC)c1 [Compound 28, (E)-8-(2,4-Dimethoxystyryl)caffeine] | > 300 mg/kg | 99% | 86% | 80% | 46% |  |  |  | 
CCn1c(=O)c2c(nc(/C=C/c3cc(OC)cc(OC)c3)n2C)n(CC)c1=O [Compound 68, (E)-8-(3,5-Dimethoxystyryl)-1,3-diethyl-7-methylxanthine] | > 300 mg/kg |  |  | 88% | 81% |  | 5 | 80% | 5
CCn1c(=O)c2[nH]c(/C=C/c3ccc(OC)c(OC)c3Cl)nc2n(CC)c1=O [Compound 49, (E)-8-(2-Chloro-3,4-dimethoxystyryl)-1,3-diethylxanthine] | > 100 mg/kg | 112% | 108% | 76% | 73% |  |  |  | 
